Active and inactive are the calls of the source.
What was measured:
[1] = HIV1 reverse transcriptase picogreen fluorescence assay (enzymatic); set-up: species or system Human immunodeficiency virus 1
[2] = biological target: Alpha-1A adrenergic receptor (Homo sapiens) (UniProt P35348); assay: ALPHA1AH_ANTAG Eurofins SafetyScreen44 (BI); settings: filed as antagonist, Compound concentration 10.0 uM
[3] = biological target: Cannabinoid receptor 2 (Homo sapiens) (UniProt P34972); assay: CB2/PERIPH/H Eurofins SafetyScreen44 (BI); settings: Compound concentration 10.0 uM
[4] = biological target: Mu-type opioid receptor (Homo sapiens) (UniProt P35372); assay: MU/H Eurofins SafetyScreen44 (BI); settings: Compound concentration 10.0 uM
[5] = biological target: Endothelin-1 receptor (Homo sapiens) (UniProt P25101); assay: ETA/H Eurofins SafetyScreen44 (BI); settings: Compound concentration 10.0 uM
[6] = HIV viral replication assay (ELISA); format: cell-based; settings: Human immunodeficiency virus 1, C8166
[7] = biological target: Muscarinic acetylcholine receptor M2 (Homo sapiens) (UniProt P08172); assay: M2/H Eurofins SafetyScreen44 (BI); settings: filed as antagonist, Compound concentration 10.0 uM
hERG (KCNH2) = hERG (KCNH2) (Homo sapiens, UniProt Q12809); assay: HERG_DOFETILIDE Eurofins SafetyScreen44 (BI); set-up: mode of action inhibitor; settings: probe [3H] dofetilide, compound concentration 10 uM, read-out: % Ctrl
[8] = biological target: 5-hydroxytryptamine receptor 1B (Homo sapiens) (UniProt P28222); assay: 5HT1B(H) Eurofins SafetyScreen44 (BI); settings: filed as antagonist, Compound concentration 10.0 uM
[9] = biological target: Sodium-dependent noradrenaline transporter (Homo sapiens) (UniProt P23975); assay: NEUP/H Eurofins SafetyScreen44 (BI); settings: Compound concentration 10.0 uM
[10] = biological target: Glucocorticoid receptor (Homo sapiens) (UniProt P04150); assay: GCORTICOID/H Eurofins SafetyScreen44 (BI); settings: Compound concentration 10.0 uM
[11] = biological target: Delta-type opioid receptor (Homo sapiens) (UniProt P41143); assay: DELTA2/H Eurofins SafetyScreen44 (BI); settings: Compound concentration 10.0 uM
[12] = biological target: 5-hydroxytryptamine receptor 1A (Homo sapiens) (UniProt P08908); assay: 5HT1A/H Eurofins SafetyScreen44 (BI); settings: Compound concentration 10.0 uM
[13] = biological target: Vasopressin V1a receptor (Homo sapiens) (UniProt P37288); assay: V1A/HUM Eurofins SafetyScreen44 (BI); settings: Compound concentration 10.0 uM
[14] = biological target: Tyrosine-protein kinase Lck (Homo sapiens) (UniProt P06239); assay: LCK_CE Eurofins SafetyScreen44 (BI); settings: Compound concentration 10.0 uM
[15] = biological target: 5-hydroxytryptamine receptor 2A (Homo sapiens) (UniProt P28223); assay: 5HT2AH_AGON Eurofins SafetyScreen44 (BI); settings: filed as agonist, Compound concentration 10.0 uM
[16] = biological target: Androgen receptor (Homo sapiens) (UniProt P10275); assay: ANDROGEN/H Eurofins SafetyScreen44 (BI); settings: Compound concentration 10.0 uM
[17] = biological target: Sodium-dependent dopamine transporter (Homo sapiens) (UniProt Q01959); assay: DATRANS/HUM Eurofins SafetyScreen44 (BI); settings: Compound concentration 10.0 uM
MAO-A = MAO-A (Rattus norvegicus, UniProt P21396); assay: MAO-A_ANTAG Eurofins SafetyScreen44 (BI); set-up: mode of action antagonist; scale not given: the % may be the effect or the level left; settings: compound concentration 10 uM, read-out: % Ctrl
[18] = biological target: Beta-1 adrenergic receptor (Homo sapiens) (UniProt P08588); assay: BETA1/HUM Eurofins SafetyScreen44 (BI); settings: Compound concentration 10.0 uM
[19] = biological target: Adenosine receptor A2a (Homo sapiens) (UniProt P29274); assay: A2A/H Eurofins SafetyScreen44 (BI); settings: filed as antagonist, Compound concentration 10.0 uM
[20] = biological target: Alpha-2A adrenergic receptor (Homo sapiens) (UniProt P08913); assay: ALPHA2A/HU Eurofins SafetyScreen44 (BI); settings: Compound concentration 10.0 uM
[21] = biological target: cGMP-inhibited 3',5'-cyclic phosphodiesterase 3A (Homo sapiens) (UniProt Q14432); assay: PDE3A Eurofins SafetyScreen44 (BI); settings: Compound concentration 10.0 uM
[22] = biological target: Cholecystokinin receptor type A (Homo sapiens) (UniProt P32238); assay: CCKA/H Eurofins SafetyScreen44 (BI); settings: Compound concentration 10.0 uM
[23] = biological target: 5-hydroxytryptamine receptor 3A (Homo sapiens) (UniProt P46098); assay: 5HT3/H Eurofins SafetyScreen44 (BI); settings: Compound concentration 10.0 uM
[24] = biological target: Glutamate receptor ionotropic, NMDA 2A (Rattus norvegicus) (UniProt Q00959); assay: NMDA/R Eurofins SafetyScreen44 (BI); settings: Compound concentration 10.0 uM
[25] = biological target: Neuronal acetylcholine receptor; alpha4/beta2 (Homo sapiens) (UniProt P17787+P43681); assay: N_NEURO_A4B2 Eurofins SafetyScreen44 (BI); format: protein-complex assay; settings: filed as agonist, Compound concentration 10.0 uM
[26] = biological target: D(2) dopamine receptor (Homo sapiens) (UniProt P14416); assay: D2SH_AGON Eurofins SafetyScreen44 (BI); settings: filed as agonist, Compound concentration 10.0 uM
[27] = biological target: Prostaglandin G/H synthase 1 (Homo sapiens) (UniProt P23219); assay: COX-1 Eurofins SafetyScreen44 (BI); settings: Compound concentration 10.0 uM
[28] = biological target: D(1A) dopamine receptor (Homo sapiens) (UniProt P21728); assay: D1/H Eurofins SafetyScreen44 (BI); settings: filed as antagonist, Compound concentration 10.0 uM
[29] = biological target: Cannabinoid receptor 1 (Homo sapiens) (UniProt P21554); assay: CB1(HU)_AGON Eurofins SafetyScreen44 (BI); settings: filed as agonist; Compound concentration 10.0 uM
[30] = biological target: Muscarinic acetylcholine receptor M3 (Homo sapiens) (UniProt P20309); assay: M3/H Eurofins SafetyScreen44 (BI); settings: Compound concentration 10.0 uM
[31] = biological target: 5-hydroxytryptamine receptor 2B (Homo sapiens) (UniProt P41595); assay: 5HT2B/H AG Eurofins SafetyScreen44 (BI); settings: filed as agonist, Compound concentration 10.0 uM
[32] = biological target: Gamma-aminobutyric acid receptor subunit alpha-1 (Rattus norvegicus) (UniProt P62813); assay: BZD/CENTR/R Eurofins SafetyScreen44 (BI); settings: Compound concentration 10.0 uM
[33] = biological target: Angiotensin-converting enzyme (Homo sapiens) (UniProt P12821); assay: ACE(HU_AMTCH400) Eurofins SafetyScreen44 (BI); settings: Compound concentration 10.0 uM
[34] = biological target: Sodium-dependent serotonin transporter (Homo sapiens) (UniProt P31645); assay: SLC6A4/H Eurofins SafetyScreen44 (BI); settings: filed as antagonist, Compound concentration 10.0 uM
[35] = biological target: Potassium voltage-gated channel subfamily V member 1 (Rattus norvegicus) (UniProt P97557); assay: K+/VOLT/RA Eurofins SafetyScreen44 (BI); settings: Compound concentration 10.0 uM
[36] = biological target: Histamine H2 receptor (Homo sapiens) (UniProt P25021); assay: H2/APT/HS Eurofins SafetyScreen44 (BI); settings: filed as antagonist, Compound concentration 10.0 uM
[37] = biological target: Histamine H1 receptor (Homo sapiens) (UniProt P35367); assay: H1/PYRIL/HS Eurofins SafetyScreen44 (BI); settings: Compound concentration 10.0 uM
[38] = biological target: Kappa-type opioid receptor (Homo sapiens) (UniProt P41145); assay: KAPPA(KOP)_HU Eurofins SafetyScreen44 (BI); settings: Compound concentration 10.0 uM
[39] = biological target: L-type Ca2+ channel (dihydropyridine site), Cav1.2 alpha-1C (Rattus norvegicus, UniProt P22002); assay: CA+/DHPSI/R Eurofins SafetyScreen44 (BI); set-up: mode of action inhibitor; settings: rat brain, probe [3H](+)PN200-110, compound concentration 10 uM, read-out: % Ctrl
[40] = biological target: 3',5'-cyclic-AMP phosphodiesterase 4D (Homo sapiens) (UniProt Q08499); assay: PDE4D2 Eurofins SafetyScreen44 (BI); settings: Compound concentration 10.0 uM
[41] = HIV 1 luciferase assay; format: cell-based, Human immunodeficiency virus 1; settings: c8166
[42] = biological target: Muscarinic acetylcholine receptor M1 (Homo sapiens) (UniProt P11229); assay: M1/H Eurofins SafetyScreen44 (BI); settings: Compound concentration 10.0 uM
[43] = biological target: Beta-2 adrenergic receptor (Homo sapiens) (UniProt P07550); assay: BETA2/HUM Eurofins SafetyScreen44 (BI); settings: filed as antagonist, Compound concentration 10.0 uM
[44] = biological target: Prostaglandin G/H synthase 2 (Homo sapiens) (UniProt P35354); assay: COX-2 Eurofins SafetyScreen44 (BI); settings: Compound concentration 10.0 uM

Chain of MAO-A (P21396 whole entry): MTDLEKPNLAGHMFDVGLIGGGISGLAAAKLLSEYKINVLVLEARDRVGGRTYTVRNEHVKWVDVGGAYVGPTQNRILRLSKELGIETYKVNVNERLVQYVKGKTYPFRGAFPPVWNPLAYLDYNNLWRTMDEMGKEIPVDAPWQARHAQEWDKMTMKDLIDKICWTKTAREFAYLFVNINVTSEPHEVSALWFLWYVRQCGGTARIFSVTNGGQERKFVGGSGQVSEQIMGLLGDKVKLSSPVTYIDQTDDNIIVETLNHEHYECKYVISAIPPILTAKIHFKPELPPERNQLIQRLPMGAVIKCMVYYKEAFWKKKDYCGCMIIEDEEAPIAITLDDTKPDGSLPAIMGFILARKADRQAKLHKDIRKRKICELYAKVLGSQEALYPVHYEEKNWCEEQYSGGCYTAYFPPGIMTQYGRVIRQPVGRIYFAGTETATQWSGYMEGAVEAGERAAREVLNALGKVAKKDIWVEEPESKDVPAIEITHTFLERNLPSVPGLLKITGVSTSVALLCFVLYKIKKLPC
Chain of Tyrosine-protein kinase Lck (Homo sapiens) (P06239 2-509 limits assumed): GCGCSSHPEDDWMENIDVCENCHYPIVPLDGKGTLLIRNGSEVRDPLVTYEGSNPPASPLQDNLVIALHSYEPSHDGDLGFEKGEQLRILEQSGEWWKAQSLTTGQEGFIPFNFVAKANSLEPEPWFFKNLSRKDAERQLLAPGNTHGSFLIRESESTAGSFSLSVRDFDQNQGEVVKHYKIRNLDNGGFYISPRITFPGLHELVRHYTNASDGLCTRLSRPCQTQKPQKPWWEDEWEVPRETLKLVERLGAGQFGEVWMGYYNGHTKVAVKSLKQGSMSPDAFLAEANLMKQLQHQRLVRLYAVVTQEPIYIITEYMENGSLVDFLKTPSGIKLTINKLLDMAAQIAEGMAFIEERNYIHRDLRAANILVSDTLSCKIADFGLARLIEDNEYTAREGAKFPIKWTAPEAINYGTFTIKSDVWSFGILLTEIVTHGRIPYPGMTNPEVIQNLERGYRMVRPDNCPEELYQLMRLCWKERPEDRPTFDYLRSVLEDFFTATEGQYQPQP
Chain of Sodium-dependent serotonin transporter (Homo sapiens) (P31645 whole entry, looked up): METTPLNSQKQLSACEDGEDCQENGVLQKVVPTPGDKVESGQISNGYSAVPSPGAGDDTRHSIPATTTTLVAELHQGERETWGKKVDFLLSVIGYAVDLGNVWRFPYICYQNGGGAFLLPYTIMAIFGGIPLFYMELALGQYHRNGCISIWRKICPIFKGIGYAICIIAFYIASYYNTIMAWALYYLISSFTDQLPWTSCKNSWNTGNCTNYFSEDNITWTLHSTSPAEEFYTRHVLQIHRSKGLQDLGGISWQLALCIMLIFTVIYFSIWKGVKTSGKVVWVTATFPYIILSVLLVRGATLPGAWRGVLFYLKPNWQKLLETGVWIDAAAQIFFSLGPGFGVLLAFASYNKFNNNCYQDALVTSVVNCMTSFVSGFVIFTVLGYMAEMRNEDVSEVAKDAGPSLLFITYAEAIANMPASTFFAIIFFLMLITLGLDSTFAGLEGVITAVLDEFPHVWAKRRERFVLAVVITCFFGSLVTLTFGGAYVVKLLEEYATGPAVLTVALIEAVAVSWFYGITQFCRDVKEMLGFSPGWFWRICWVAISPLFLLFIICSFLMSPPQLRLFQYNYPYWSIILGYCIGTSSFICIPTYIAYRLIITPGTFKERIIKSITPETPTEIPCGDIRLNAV
Chain of Alpha-1A adrenergic receptor (Homo sapiens) (P35348 whole entry): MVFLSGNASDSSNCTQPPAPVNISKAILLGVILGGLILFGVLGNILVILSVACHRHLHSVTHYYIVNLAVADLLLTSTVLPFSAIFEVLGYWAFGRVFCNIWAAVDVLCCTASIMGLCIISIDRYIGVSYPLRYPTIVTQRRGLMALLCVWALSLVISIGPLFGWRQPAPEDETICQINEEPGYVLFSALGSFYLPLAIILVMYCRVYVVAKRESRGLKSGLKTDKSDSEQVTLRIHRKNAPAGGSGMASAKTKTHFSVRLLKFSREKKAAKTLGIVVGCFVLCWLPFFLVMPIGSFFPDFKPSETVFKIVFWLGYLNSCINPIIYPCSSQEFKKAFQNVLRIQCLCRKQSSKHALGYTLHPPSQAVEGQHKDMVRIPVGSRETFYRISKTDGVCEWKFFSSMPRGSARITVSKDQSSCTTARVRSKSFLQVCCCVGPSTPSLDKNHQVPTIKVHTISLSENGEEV
Chain of Muscarinic acetylcholine receptor M3 (Homo sapiens) (P20309 whole entry, looked up): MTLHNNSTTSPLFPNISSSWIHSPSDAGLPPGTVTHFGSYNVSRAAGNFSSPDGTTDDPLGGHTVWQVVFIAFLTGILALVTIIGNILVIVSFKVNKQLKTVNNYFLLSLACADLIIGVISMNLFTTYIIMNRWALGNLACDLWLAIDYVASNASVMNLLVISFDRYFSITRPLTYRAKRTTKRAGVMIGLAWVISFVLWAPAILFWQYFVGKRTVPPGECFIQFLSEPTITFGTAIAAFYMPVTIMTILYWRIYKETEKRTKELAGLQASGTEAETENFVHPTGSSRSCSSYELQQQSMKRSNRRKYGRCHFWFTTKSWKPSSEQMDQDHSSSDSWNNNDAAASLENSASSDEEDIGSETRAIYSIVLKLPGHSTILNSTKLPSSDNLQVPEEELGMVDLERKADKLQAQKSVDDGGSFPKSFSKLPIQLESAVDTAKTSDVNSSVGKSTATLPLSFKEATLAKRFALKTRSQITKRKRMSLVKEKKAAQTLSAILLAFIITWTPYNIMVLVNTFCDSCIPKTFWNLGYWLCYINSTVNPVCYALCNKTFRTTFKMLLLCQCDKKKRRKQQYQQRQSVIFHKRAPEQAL
Chain of Alpha-2A adrenergic receptor (Homo sapiens) (P08913 whole entry): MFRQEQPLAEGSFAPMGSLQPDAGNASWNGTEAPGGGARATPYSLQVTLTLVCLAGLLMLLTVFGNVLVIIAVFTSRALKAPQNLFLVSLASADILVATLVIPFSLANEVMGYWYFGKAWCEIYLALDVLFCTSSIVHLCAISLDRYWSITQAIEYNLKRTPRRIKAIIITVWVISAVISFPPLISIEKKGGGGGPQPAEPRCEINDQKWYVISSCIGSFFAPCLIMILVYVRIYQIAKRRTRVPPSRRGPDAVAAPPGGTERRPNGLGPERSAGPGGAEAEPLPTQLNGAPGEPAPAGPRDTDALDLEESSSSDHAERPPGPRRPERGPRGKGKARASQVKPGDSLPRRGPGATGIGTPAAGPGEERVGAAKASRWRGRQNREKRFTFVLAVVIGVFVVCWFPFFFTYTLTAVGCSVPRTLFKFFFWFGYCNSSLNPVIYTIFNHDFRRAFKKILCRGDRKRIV
Chain of D(2) dopamine receptor (Homo sapiens) (P14416 whole entry): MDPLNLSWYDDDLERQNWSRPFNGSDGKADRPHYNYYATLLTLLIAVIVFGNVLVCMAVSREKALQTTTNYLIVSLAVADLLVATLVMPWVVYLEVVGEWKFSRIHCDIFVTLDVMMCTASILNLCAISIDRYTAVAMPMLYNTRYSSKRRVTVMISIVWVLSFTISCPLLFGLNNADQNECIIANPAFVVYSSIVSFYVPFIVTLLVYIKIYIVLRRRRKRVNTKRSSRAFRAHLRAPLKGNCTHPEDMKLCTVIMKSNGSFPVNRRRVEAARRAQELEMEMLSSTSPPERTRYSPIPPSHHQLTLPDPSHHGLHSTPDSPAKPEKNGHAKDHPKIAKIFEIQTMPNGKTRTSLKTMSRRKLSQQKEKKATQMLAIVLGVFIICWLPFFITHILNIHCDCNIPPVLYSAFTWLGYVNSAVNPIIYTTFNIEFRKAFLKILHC
Chain of Cholecystokinin receptor type A (Homo sapiens) (P32238 whole entry): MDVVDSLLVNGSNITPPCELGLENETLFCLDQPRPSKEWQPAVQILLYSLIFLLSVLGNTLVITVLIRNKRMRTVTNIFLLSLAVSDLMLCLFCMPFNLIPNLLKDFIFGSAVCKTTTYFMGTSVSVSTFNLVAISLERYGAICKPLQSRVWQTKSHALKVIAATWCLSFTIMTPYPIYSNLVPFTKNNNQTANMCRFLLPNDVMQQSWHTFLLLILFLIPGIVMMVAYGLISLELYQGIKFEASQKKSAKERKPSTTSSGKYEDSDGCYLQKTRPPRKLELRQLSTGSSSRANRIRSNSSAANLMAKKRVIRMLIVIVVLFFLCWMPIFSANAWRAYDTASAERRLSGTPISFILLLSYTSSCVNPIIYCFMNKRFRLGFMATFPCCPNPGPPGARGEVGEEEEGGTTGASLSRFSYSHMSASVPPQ
Chain of Histamine H1 receptor (Homo sapiens) (P35367 whole entry): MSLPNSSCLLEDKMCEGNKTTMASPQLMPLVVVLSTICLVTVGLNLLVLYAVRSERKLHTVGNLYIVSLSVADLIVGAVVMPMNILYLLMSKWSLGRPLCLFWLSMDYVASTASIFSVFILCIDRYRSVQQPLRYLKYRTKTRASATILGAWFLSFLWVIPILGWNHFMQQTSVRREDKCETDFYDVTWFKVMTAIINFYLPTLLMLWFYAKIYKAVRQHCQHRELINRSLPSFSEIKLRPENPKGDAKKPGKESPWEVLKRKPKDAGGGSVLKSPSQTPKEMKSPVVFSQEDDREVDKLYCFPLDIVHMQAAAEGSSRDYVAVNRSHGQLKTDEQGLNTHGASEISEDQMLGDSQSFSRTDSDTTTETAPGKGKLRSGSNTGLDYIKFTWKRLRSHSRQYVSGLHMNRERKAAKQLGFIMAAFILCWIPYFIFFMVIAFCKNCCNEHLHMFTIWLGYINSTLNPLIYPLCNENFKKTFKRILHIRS
Chain of Mu-type opioid receptor (Homo sapiens) (P35372 whole entry): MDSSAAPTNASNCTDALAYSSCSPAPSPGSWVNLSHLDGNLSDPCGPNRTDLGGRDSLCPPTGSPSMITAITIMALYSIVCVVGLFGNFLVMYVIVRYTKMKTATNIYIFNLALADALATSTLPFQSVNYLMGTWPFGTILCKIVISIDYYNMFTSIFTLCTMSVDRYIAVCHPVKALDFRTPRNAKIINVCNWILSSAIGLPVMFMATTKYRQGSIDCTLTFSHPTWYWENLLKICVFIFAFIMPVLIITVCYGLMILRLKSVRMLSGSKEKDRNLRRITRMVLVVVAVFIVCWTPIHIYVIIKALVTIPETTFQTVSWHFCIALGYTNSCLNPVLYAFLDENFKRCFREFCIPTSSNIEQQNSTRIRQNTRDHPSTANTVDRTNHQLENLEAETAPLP

CC(C)(C#Cc1ccc(NC(=O)COc2ccccc2C(=O)c2ccccc2)c(Cl)c1)C(=O)O [BI 2439]
5050 nM (not active): IC50 [1]

Cc1c(NC(=O)COc2ccc(Cl)cc2C(=O)c2cc(F)cc(C(F)(F)F)c2)ccc(C(=O)O)c1F [BI 2540]
96% (not active): activity at 10 µM [39]
active: IC50 [6] 0.76 nM | IC50 [1] 12 nM | IC50 [41] 2.6 nM
inactive: residual activity [2] 97% | residual activity [3] 100% | residual activity [4] 99% | residual activity [5] 113% | residual activity [7] 111% | residual activity [8] 90% | residual activity [9] 98% | residual activity [10] 103% | residual activity [11] 78% | residual activity [12] 94% | residual activity [13] 107% | residual activity [14] 88% | residual activity [15] 110% | residual activity [16] 105% | residual activity [17] 92% | residual activity [18] 101% | residual activity [19] 82% | residual activity [20] 79% | residual activity [21] 103% | residual activity [22] 108% | residual activity [23] 100% | residual activity [24] 87% | residual activity [25] 102% | residual activity [26] 96% | residual activity [27] 110% | residual activity [28] 100% | residual activity [29] 125% | residual activity [30] 101% | residual activity [31] 103% | residual activity [32] 127% | residual activity [33] 110% | residual activity [34] 110% | residual activity [35] 103% | residual activity [36] 111% | residual activity [37] 96% | residual activity [38] 103% | residual activity [40] 93% | residual activity [42] 113% | residual activity [43] 96% | residual activity [44] 84%
104% (not active): activity at 10 µM (MAO-A)
94% (not active): activity at 10 µM (hERG (KCNH2))

Source: ChEMBL document CHEMBL4630903, “Data for DCP probe BI-2540” (2021)
